Data on 8 compounds can be found in patent US9096554B2, “Drugs for inhibiting p38 and uses thereof” (UNIVERSIDAD AUTÓNOMA DE MADRID, priority 2011, dated 2015).

Series [1] deals with TNF-α secretion in response to bacterial LPS in human monocytes (THP-1). The series is described as follows: TNF-α secretion in response to LPS in THP-1 monocytes (ELISA). It is filed as cell-based. Conditions: for IC50: Homo sapiens, THP-1, LPS. As to the method: (§1) This assay was performed to analyze the effect of the compounds of the invention on tumor necrosis factor alpha (TNF-α) secretion in response to bacterial lipopolysaccharide (LPS) in human monocytes (THP-1) and on the survival of said THP-1 monocytes in the presence of said compounds.
(§2) Briefly, cells from human monocytic cell line THP-1 (ATCC) at a density of about 10^6 cells/ml were stimulated with bacterial LPS (Sigma, Ref.# L2654) at a concentration of 1 mg/ml for 4 hours in the presence of the compounds of the invention dissolved in dimethyl sulfoxide (DMSO) at different concentrations (0.001, 0.01, 0.1, 1, 10 and 100 μM). The amount of TNF-α secreted into the medium in response to LPS was quantified by means of an ELISA assay (BioTrak, Ref.# RPN2758, GE-Amersham) following the manufacturer's instructions. Cell viability was quantified by means of flow cytometry FACS (FACScalibur, Becton Dickinson) after staining the treated cells with propidium iodide (1 mg/l) and quantifying the amount of positive cells for this stain (Software Cell Quest Pro).
These assays were performed to compare the effect of the compounds of the invention (compounds 1, 2 and 3) on tumor necrosis factor alpha (TNF-α) secretion in response to bacterial lipopolysaccharide (LPS) in human monocytes (THP-1) with respect to compounds that are structurally related but have a different substitution pattern in the phenyl ring. Conditions similar to those described in Example 7 were used.

Series [2] addresses p38 MAPK (Homo sapiens, UniProt Q16539). The series is described as follows: Inhibition of MEF2A phosphorylation by p38 MAPK in vitro. The format is biochemical. Particulars: MEF2A (10 nM) phosphorylation by active recombinant p38 (1 nM), 5 minutes. On the procedure:
This assay was performed to quantify the effect of the compounds of the invention on MEF2-A phosphorylation by p38 MAPK in vitro.
To that end, briefly, active recombinant p38 (1 nM) and MEF2A (10 nM) were incubated with different concentrations of Compound 1 in a kinase buffer for 5 minutes. The proteins were resolved using SDS-PAGE and the activity of p38 was measured as phosphorylated MEF2A using anti-P-MEF2A (T312), a specific antibody. The mean of the results is graphically depicted as a percentage with respect to the controls (DMSO) of two independent experiments conducted in duplicate. For comparative purposes, Compound 5 at a concentration of 10 μM was used.
Finally, the in vitro mean inhibitory concentration (IC50) of this reaction for each assayed compound was determined as the measurement of the efficacy of a compound for inhibiting this biochemical function using a sufficient range of concentrations of each of these compounds (data not shown).

Series [3] deals with THP-1 monocytes. The series is described as follows: THP-1 monocyte survival (propidium iodide, FACS). It is filed as cell-based, human. Conditions: dose causing the death of 50% of the cells; THP-1, propidium iodide FACS. As to the method:
as §1, §2

The subject of series [4] is LysM-GRK2^f/+ mice. The series is described as follows: Carrageenan-induced hyperalgesia in LysM-GRK2f/+ mice, intrathecal injection. The format is in vivo. Particulars: 4 μg intrathecal. An excerpt: To perform this assay, a previously described protocol was followed [Willemen H L, et al., Microglial/macrophage GRK2 determines duration of peripheral IL-1beta-induced hyperalgesia: contribution of spinal cord CX3CR1, p38 and IL-1 signaling. Pain. 2010 September; 150(3):550-60; and Eijkelkamp N, et al., (http://www.ncbi.nlm.nih.gov/pubmed/20147541; J. Neurosci. 2010 Feb. 10; 30(6):2138-49). Briefly, eight female LysM-GRK2^f/+ mice (2 mice per group, 4 paws for each condition) were subjected to an intraplantar injection of carrageenan (Sigma-Aldrich, […] of a 1% solution in saline) for inducing inflammatory-type hyperalgesia in the extremities. Seven (7) days after injecting carrageenan, the paw withdrawal latency time when the paw is in contact with heat was determined as an indication of inflammatory-type pain at time 0 (T=0). The carrier (20% DMSO) or Compound 1 at different concentrations (0.15, 0.5 and 1.5 μg in 5 μL of 20% DMSO) was then intrathecally injected.
The paw withdrawal latency periods were then measured at different times (0.5, 1, 2, 4, 6, 8, 10, 24, 48 and 96 hours after injecting the compound).
To evaluate the effect of Compound 5 on hyperalgesia induced in mice, a protocol similar to that described for Compound 1 in Example 9A was followed, but in this protocol, the known p38 MAPK inhibitor SB239063 (5 μg in 5 μL of 20% DMSO), the carrier (20% DMSO), or Compound 5 (4 μg in 5 μL of 20% DMSO) was intrathecally injected 7 days after injecting the carrageenan.

Setting [5] is: Table 3, comparison with positional isomers.

Molecules are shown by their SMILES. Bounds are passed on as bounds.

Sequence of p38 MAPK (Q16539 whole entry): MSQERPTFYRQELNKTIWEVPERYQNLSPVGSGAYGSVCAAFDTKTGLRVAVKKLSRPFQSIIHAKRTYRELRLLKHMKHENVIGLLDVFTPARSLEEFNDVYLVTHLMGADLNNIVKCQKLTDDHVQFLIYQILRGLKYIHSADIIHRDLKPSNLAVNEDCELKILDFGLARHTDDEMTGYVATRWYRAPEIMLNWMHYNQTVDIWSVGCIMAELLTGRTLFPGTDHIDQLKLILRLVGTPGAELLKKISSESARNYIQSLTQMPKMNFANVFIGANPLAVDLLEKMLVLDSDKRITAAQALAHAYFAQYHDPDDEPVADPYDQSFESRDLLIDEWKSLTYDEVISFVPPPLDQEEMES

`O=[N+]([O-])c1ccc(Nc2cccc(F)c2F)c2nonc12` [Compound 9, reference compound] had an IC50 in series [1] (Table 4, comparison with positional isomer) of 5.25 ± 0.35 µM. For the same compound, the “capacity for reducing TNF-α secretion compared with Compound 3” value in series [1] (human monocytes, FIG. 7) is reported as “lower capacity”.

As for `Cc1ccc(C)c(Nc2cc(Cl)c3nonc3c2[N+](=O)[O-])c1` [Compound 6, (7-chloro-4-nitro-benzo[1,2,5]oxadiazol-5-yl)-(2,5-dimethyl-phenyl)-amine], the IC50 in series [1] (Table 2, TNF-α ELISA) was 3 µM.

As to `Cc1ccc(Cl)cc1Nc1cc(Cl)c2nonc2c1[N+](=O)[O-]` [Compound 5, (5-chloro-2-methyl-phenyl)-(7-chloro-4-nitro-benzo[1,2,5]oxadiazol-5-yl)-amine], the IC50 in series [2] is 10 µM; in series [1] (Table 2, TNF-α ELISA), 0.3 µM. In series [3], the “TD50 (μM)” value is recorded as >35 μM (n = 3). In addition, in series [4], the “time after administering at which the decrease in hyperalgesia can be detected” value is given as 8 days. Also, in series [4] (7 days after carrageenan, FIG. 12), the “hyperalgesia (paw withdrawal latency to heat)” value is “decrease in hyperalgesia”.

In turn, `O=[N+]([O-])c1ccc(Nc2cc(F)ccc2F)c2nonc12` [Compound 3, (2,5-difluoro-phenyl)-(7-nitro-benzo[1,2,5]oxadiazol-4-yl)-amine] had an IC50 in series [1] (Table 2, TNF-α ELISA) of 2.9 ± 0.41 µM.

`O=[N+]([O-])c1ccc(Nc2cc(Cl)ccc2O)c2nonc12` [Compound 2, 4-chloro-2-(7-nitro-benzo[1,2,5]oxadiazol-4-ylamino)-phenol]: inhibition in series [1] (Table 2, TNF-α ELISA) was half-maximal at 3.2 ± 0.25 µM (IC50). Besides, the “activity in TNF-α secretion inhibition compared with comparative Compounds 10-14” value in series [1] (human monocytes, FIG. 8) was “greater activity”. The “TD50 (μM)” value in series [3] is >100 μM (n = 2).

`Cc1ccc(Nc2ccc([N+](=O)[O-])c3nonc23)c(Cl)c1` [Compound 8, reference compound]: in series [1] (setting [5]), half-maximal inhibition (IC50) was put at 29 ± 1.41 µM.

Regarding `COc1ccc(Cl)cc1C(=O)Nc1ccc(Cl)c2nonc12` [Compound 4, 5-chloro-N-(7-chloro-benzo[1,2,5]oxadiazol-4-yl)-2-methoxy-benzamide], the IC50 in series [1] (Table 2, TNF-α ELISA) is 3.2 µM.

Regarding `Cc1ccc(Nc2ccc([N+](=O)[O-])c3nonc23)cc1Cl` [Compound 7, reference compound], in series [1] (setting [5]), the IC50 came out at 17 ± 1.41 µM.

Usually IC50 stands for the concentration that gives 50% inhibition.
